{"source": "patent US7842683B2", "about": "“Neurotherapeutic compositions and method” (Revaax Pharmaceuticals, LLC, priority 1999, dated 2010)", "key": {"[1]": {"test_system": "bacteria", "details": "cited from earlier work"}, "[2]": {"details": "human, in vivo; cited from earlier work"}, "[3]": {"test_system": "male golden hamsters", "assay": "Resident/intruder paradigm of offensive aggression", "type": "in vivo, Syrian golden hamsters (Mesocricetus auratus)", "details": "D vs L isomer, 50 μg/kg IP", "protocol": "Male Syrian golden hamsters (Mesocricetus auratus) (140-150 g) obtained from Harlan Sprague-Dawley Laboratories (Indianapolis, Ind.) were housed individually in Plexiglas cages (24 cm×24 cm×20 cm), maintained on a reverse light:dark cycle (14L:10D; lights on at 19:00 hr) and provided food and water ad libitum. Animals were acclimated to the reverse light:dark cycle for at least two weeks before testing. All behavioral tests were conducted during the dark phase of the circadian cycle. All animals were acquired and cared for in accordance with the guidelines published in the Guide for the Care and Use of Laboratory Animals (National Institutes of Health Publications No. 85-23, Revised 1985).\n(§1) Agonistic behavior can be classified as either offensive or defensive aggression (Blanchard and Blanchard, 1977; Adams, […]; Albert and Walsh, 1984). Offensive aggression is characterized by the aggressor initiating an attack on an opponent, while defensive aggression lacks active approach. Both types of aggression have their own unique neurobehavioral systems. The stimuli that elicit offensive and defense attack are different, as are the sequences of behaviors that accompany each agonistic response. […] Offensive aggression is easily studied using male golden hamsters tested in a resident/intruder paradigm, an established model of offensive aggression (Ferris and Potegal 1988). Placing an unfamiliar male hamster into the home cage of another male hamster elicits a well-defined sequence of agonistic behaviors from the resident that includes offensive aggression.\n(§2) Hamsters are nocturnal and as such all behavioral tests were performed during the first four hrs of the dark phase under dim red illumination. The resident was scored for offensive aggression, e.g., latency to bite the intruder, the total number of bites, total contact time with the intruder and flank marking over a 10 min test period (Ferris and Potegal, 1988). Flank marking is a form of olfactory communication in which a hamsters arches its back and rubs pheromone producing flank glands against objects in the environment (Johnson, 1986).\nParametric data, i.e., latencies and contact time, were analyzed with a one-way ANOVA followed by Newman-Keuls post hoc tests. Non parametric data, i.e., number of bites and flank marks, were analyzed with Kruskal-Wallis tests followed by Mann-Whitney U tests to determine differences between groups. Two sample comparisons were analyzed with paired and unpaired t-Tests for parametric data and Wilcoxon and Mann-Whitney Tests for paired and unpaired non-parametric data, respectively.\nas §1, with “by an” for “by the”, “an opponent; while,” for “an opponent, while”, “Potegal 1988) in the context of defending the home burrow.” for “Potegal 1988).”\nas §2, with “Flank marking is a form of olfactory communication in which a hamsters arches its back and rubs pheromone producing flank glands against objects in the environment (Johnson, 1986).” left out"}, "[4]": {"test_system": "golden hamsters", "assay": "Seed finding model of anxiety", "type": "in vivo, Syrian golden hamsters (Mesocricetus auratus)", "details": "dose not given", "excerpt": "Clavulanic acid (CLAV) is structurally similar to the beta-lactam antibiotics. A most robust and simple bioassay for screening beta-lactams for CNS activity is the golden hamster seed finding model of anxiety. Briefly, hamsters are deprived of food overnight. The following day they are exposed to the additional stress of being taken from their home cage and placed in a novel environment for a few minutes. This manipulation stimulates the release of the stress hormone cortisol (FIG. 37). During their absence from the home cage, sunflower seeds are hidden under the bedding in one of the corners. When returned to the home cage, hamsters routinely scramble along the walls for 1-2 min before settling down, locating and eating the seeds. However, animals treated with the benzodiazepine anxiolytic chlordiazepoxide find seeds in less than 10 sec.\nMale, Syrian golden hamsters (Mesocricetus auratus) (120-130 g) obtained from Harlan Sprague-Dawley Laboratories (Indianapolis, Ind.) were housed individually in Plexiglas cages (24 cm×24 cm×20 cm), maintained on a reverse light:dark cycle (14L:10D; lights on at 19:00 hr) and provided food and water ad libitum. A range of concentrations of CLAV (saline vehicle, 0.1, 1.0, 10, 100 1,000 ng/kg) were tested in six groups of hamsters (4-8/group)(FIG. 25). All tests were conducted during the dark phase of the circadian cycle under dim red illumination. Prior to testing all animals were fasted for 20-24 hrs. Ninety min after intraperitoneal (IP) injection of drug, animals were taken from their home cage and placed into a holding cage for 2 min. During their absence, six sunflower seeds were buried under the bedding in one corner of their home cage. Animals were placed back into their home cage randomly facing any one of the empty corners and timed for their latency to find the seeds in a five min observation period. Latency times were analyzed with a one-way ANOVA followed by Scheffe's post hoc tests. Assumption of equal variances was tested (Hartley's F-max=2.1 p>0.05)\nIt was hypothesized that CLAV functioned as an anxiolytic in the seed finding assay by blocking NAALADase activity in the brain. If this notion were true then it would be predicted that drugs known to block NAALADase should also enhance seed finding. To this end, animals were treated with N-acetyl-beta-aspartyl-glutamic acid (beta-NAAG), a competitive inhibitor of NAALADase (Serval et al., 1992) and tested in the seed finding model of anxiety. The study was similar to that outlined in Section I with one notable exception. […] Beta-NAAG (FW 304) was given in a dose of 3 ng in a volume of 1 μl saline ICV. The average adult hamster brain weights ca. 1.2 g of which 22% is extracellular fluid. The estimated beta-NAAG concentration was 11 ng/ml or 36 nM.\nTwo groups of six animals each were fasted overnight as previously described and tested the following day. One group was treated with beta-NAAG and the other saline vehicle and one hr later timed for latency to find the hidden sunflower seeds. A Student t-test for unpaired data was used for statistical comparisons."}, "[5]": {"test_system": "Male Wistar rats", "assay": "Elevated plus-maze (anxiolytic activity)", "type": "in vivo, rat", "details": "1 mM, 2 ul into lateral ventricle, 60 min", "excerpt": "(§3) The elevated plus-maze was developed for the detection of anxiolytic and anxiogenic drug effects in the rat (Pellow et al., 1985). The method has been validated behaviorally, physiologically, and pharmacologically. The plus-maze consists of two open arms and two enclosed arms. […] Conversely, anxiogenic compounds like yohimbin or amphetamines reduce open arm entries and time spent in the open arms.\nMale Wistar rats weighing 250-300 g were group housed in a normal 12:12 light-dark cycle light on at 0800 hr and provide food and water ad libitum. The plus-maze consisted of two open arms, 50×10 cm, and two enclosed arms 50×10×40 cm with an open roof, arranged such that the two open arms were opposite to each other. The maze was elevated to a height of 50 cm.\nEight animals were tested in the plus-maze 90 min following IP injection with 50 μg/kg Mox and saline vehicle. The order of treatments was counter balanced with at least 48 hrs between injections. At the start of the experiment the animal was place in the center of the plus maze facing the closed arm. Over a five min observation period, animals were scored for the latency to enter the closed arm, time spent in the closed arm and the number of open arm entries following the first occupation of the closed arm (FIG. 7).\nBecause Mox and CDP have different bioavailability profiles, e.g. brain penetrance, their CNS activity could not be compared by giving systemic injections of equimolar concentrations of each drug. Instead it was necessary to give both drugs directly into the cerebroventricular system to by pass the blood brain barrier. Animals were anesthetized with sodium pentobarbital (50 mg/kg), implanted with microinjection guide cannulae aimed at the lateral ventricle and allowed to recover for two days before testing. To groups of six animals each were tested with Mox or CDP. Each animals received a injection of drug and 0.9% NaCl vehicle on two separate days. The order of injections was counterbalanced and separated by two days. Both Mox and CDP were prepared in 0.9% NaCl at a concentration of 1 mM. All injections were given in a volume of 2 ul over 10 secs in fully conscious, restrained animals. Sixty min later animals were tested in the plus-maze for a 3 min observation period and scored for behaviors as noted previously.\nas §3, with “screening” for “the detection of”\nMale Wistar rats weighing 250-300 g were group housed in a normal 12:12 light-dark cycle with light on at 0800 hr and provided food and water ad libitum. The plus-maze consisted of two open arms, 50 cm long, 10 cm wide, with walls 40 cm high made of clear Plexiglas. The two closed arms had the same dimensions but included a roof. The Plexiglas for the closed arms was painted black. Each pair of arms was arranged opposite to each other to form the plus-maze. The maze was elevated to a height of 50 cm. Eighteen animals were tested in the plus-maze 90 min following the IP injection of 1.0 μg/kg CLAV, 50 or vehicle control in a volume of ca. 0.3 ml. The order of treatments was counter balanced with at least 48 hrs between injections. At the start of the experiment, the animal was placed at the end of one of the open arms. Over a five min observation period, animals were scored for the latency to enter the closed arm, time spent in the closed arm and the number of open arm entries following the first occupation of the closed arm. The study produced tables of repeated measures. The data between treatments were compared with a two-way, repeated measures ANOVA followed by Bonferroni post hoc tests. […]"}, "[6]": {"test_system": "rats", "assay": "Motor activity in an open field (plus-maze animals)", "type": "in vivo, rat", "details": "1 mM direct injection into the brain, 30 min prior to plus-maze", "protocol": "However, this depression of motor activity disappears following repeated administration of CDP over several days. […] To control for any non-specific effects of Mox and CDP on motor activity following their direct injection into the brain, animals were tested in the open field 30 min prior to testing in the plus (FIG. 18).\nImmediately after each of the plus-maze tests reported above in Section II, animals were tested for general motor activity in an “open field.” Animals were placed into a large clean Plexiglas cage (48×32×40 cm) devoid of bedding. This open field was delineated into equal quadrants by tape on the underside of the cage. Animals were scored for motor activity by counting the number of quadrants traversed in 1 min."}}}
{"smiles": "CO[C@@]1(NC(=O)C(C(=O)O)c2ccc(O)cc2)C(=O)N2C(C(=O)O)=C(CSc3nnnn3C)CO[C@@H]21", "note": "(some centres unmarked) [D Mox]", "values": [{"measurement": "antibacterial activity", "setting": "[1]", "result": "has antibacterial activity"}, {"measurement": "unbound fraction to plasma protein vs L isomer", "setting": "[2]", "result": "greater unbound fraction"}, {"measurement": "contact time", "setting": "[3]", "result": "no significant difference"}, {"measurement": "flank marking", "setting": "[3]", "result": "no significant difference"}, {"measurement": "isomer affecting offensive aggressive behavior", "setting": "[3]", "result": "active isomer"}, {"measurement": "bite latency", "setting": "[3]; 90 min", "result": "significantly increased"}, {"measurement": "number of bites", "setting": "[3]; 90 min", "result": "reduced"}]}
{"smiles": "CNC1=Nc2ccc(Cl)cc2C(c2ccccc2)=[N+]([O-])C1", "note": "[CDP, Chlordiazepoxide]", "values": [{"measurement": "time to find seeds", "setting": "[4]", "result": "less than 10 sec"}, {"measurement": "time spent in the closed arm (dark)", "setting": "[5]", "result": "no effect"}, {"measurement": "latency to enter the closed arm", "setting": "[5]; 3 min observation", "result": "no effect"}, {"measurement": "general motor activity in the open field", "setting": "[6]", "result": "no significant effect"}]}
